# Measurements published in paper PMC8351955, “Targeting Mycobacterium tuberculosis response to environmental cues for the development of effective antitubercular drugs” (PLoS Biology, 2021).
# “And” between values parts separate entries of the source, which are not always exact repeats. Identical values can stand only once. Like-named read-outs stand apart in the source and are kept apart here.
# How the values were obtained:
# [1] = test system: CDC1551(rv2390c′::GFP) reporter Mtb strain; conditions: for Normalized % induction: Fig. 2C, DMSO = 100
# Mtb [2] = experiment: Mtb growth assay in cholesterol medium (OD600); conditions: for OD600: Fig. 2G
# Description: (§1) Bacterial growth was tracked by measuring OD600 every 3 days for 12 days. […] Bacterial growth was tracked by measurement of OD600 every 3 days over 12 days.
# Mtb [3] = experiment: Mtb growth assay in standard 7H9 medium (OD600); conditions: Fig. 2F
# Description: as §1
# [4] = test system: Mtb growth in J774 macrophage-like cells; experiment: J774 infection in 96-well plates, mKO fluorescence 6 days post-infection; type: cell-based, Mycobacterium tuberculosis; conditions: for % Growth: Fig. 2D, DMSO = 100
# Description: For J774 infection in 96-well plates, 1.8 × 10^5 J774 cells were seeded per well in 180 μl of J774 infection media 1 day prior to infection. On the day of the assay, log-phase Mtb constitutively expressing mKO were pelleted and resuspended in 1 ml basal uptake buffer, passed 6× through a tuberculin syringe with a 25 G × 5/8″ needle, then resuspended in J774 infection media to a final OD600 = 0.2. Media was removed from 96-well plate containing the J774 cells, with 140 μl of fresh J774 infection media added back to each well. A volume of 40 μl of the Mtb suspension at OD600 = 0.2 was added to each well, followed by addition of appropriate concentration of compound or DMSO in a 20-μl final volume in J774 infection media (compound final concentration 10 μM, rifampicin final concentration 5 μM, DMSO final concentration 0.1%/well). Bacterial mKO fluorescence was read immediately after infection using a Biotek Synergy Neo2 microplate reader (bottom read monochromator, excitation 543/10 nm, emission 565/10 nm), and again 6 days post-infection. Plates were kept in humidified ziplock bags in a 37°C, 5% CO2 incubator. mKO fluorescence in DMSO-treated control samples were defined as 100% growth, and fluorescence observed in treatment conditions calculated as a percentage from that set value.
# [5] = test system: CDC1551(rv2390c′::GFP) reporter Mtb strain, response to high [Cl−]; experiment: microbe, parasite or virus in culture; type: cell-based, Mycobacterium tuberculosis; conditions: for activity at 10 µM / activity at 20 µM / IC50: Mycobacterium tuberculosis; for activity at 10 µM / activity at 20 µM: 144 h; for activity at 20 µM: read-out: rv2390c'::GFP validation assay NPA% at 20 µM compound; for IC50: read-out: ShuminTan.MtbChloride.Validation: IC50; for ShuminTan.MtbChloride.Primary: NPI%: primary screen, Sheet2
# [6] = test system: CDC1551(rv1405c′::GFP) reporter Mtb strain; experiment: microbe, parasite or virus in culture; type: cell-based, Mycobacterium tuberculosis; conditions: for IC50 / activity at 10 µM / activity at 20 µM: Mycobacterium tuberculosis; for IC50: read-out: ShuminTan.MtbChloride.Secondary: IC50; for activity at 10 µM: read-out: rv1405c'::GFP secondary assay NPA% at 10 µM compound; for activity at 20 µM: read-out: rv1405c'::GFP secondary assay NPA% at 20 µM compound
# [7] = test system: Mtb growth in J774 murine macrophage-like cells; experiment: microbe, parasite or virus in culture; type: cell-based, Mycobacterium tuberculosis; conditions: Mycobacterium tuberculosis; for IC50: J774 dose response 0.039-20 µM, read-out: ShuminTan.Mtb.Validation.Macrophage: IC50
# [8] = pH 6.4, […], DMSO positive control = 100%, read-out: Primary screen rv2390c'::GFP NPA%
# [9] = 10 µM, pH 6.4, 250 mM NaCl, 6 days, read-out: rv2390c'::GFP validation assay NPA% at 10 µM compound
# [10] = J774, read-out: %inhibition compared to Rif in J774 at 20 uM
# [11] = J774, 144 h, read-out: J774 tertiary assay % inhibition compared to Rif at 20 µM compound
smiles,measurement,setting,value
"CCSc1ncc(CN2CCN(c3nc4ccccc4s3)CC2)cn1 [JSF-4298, 2-(4-((2-(ethylthio)pyrimidin-5-yl)methyl)piperazin-1-yl)benzo[d]thiazole]",Normalized % induction,[1]; average of 3 replicates,128.692%
same,Normalized % induction,[1]; individual replicates,127.109% and 127.993% and 130.974%
same,Ability to increase rv2390c′::GFP reporter signal in high [Cl−],[1]; pH 7,continuing to demonstrate the phenotypes seen with the parental C6 compound
same,Inhibition of Mtb growth in cholesterol media,"Mtb [2]; 10 μM, OD600 over 12 days",continuing to demonstrate the phenotypes seen with the parental C6 compound
same,OD600,"Mtb [2]; day 3, average",0.06
same,OD600,"Mtb [2]; day 3, individual replicates",0.06
same,OD600,"Mtb [2]; day 6, average",0.09333
same,OD600,"Mtb [2]; day 6, individual replicates",0.08 and 0.1 (2×)
same,OD600,"Mtb [2]; day 9, average",0.1333
same,OD600,"Mtb [2]; day 9, individual replicates",0.14 (2×) and 0.12
same,OD600,"Mtb [2]; day 12, average",0.1533
same,OD600,"Mtb [2]; day 12, individual replicates",0.16 (2×) and 0.14
same,OD600,"Mtb [3]; day 3, average",0.1867
same,OD600,"Mtb [3]; day 3, individual replicates",0.2 and 0.18 (2×)
same,OD600,"Mtb [3]; day 6, average",0.38
same,OD600,"Mtb [3]; day 6, individual replicates",0.36 and 0.38 and 0.4
same,OD600,"Mtb [3]; day 9, average",0.5067
same,OD600,"Mtb [3]; day 9, individual replicates",0.5 (2×) and 0.52
same,OD600,"Mtb [3]; day 12, average",0.6467
same,OD600,"Mtb [3]; day 12, individual replicates",0.64 (2×) and 0.66
same,Inhibition of Mtb growth in J774 cells,"[4]; 10 μM, 6 days post-infection",continuing to demonstrate the phenotypes seen with the parental C6 compound
same,% Growth,[4]; average of 4 replicates,72.2652%
same,% Growth,[4]; individual replicates,65.6342% and 77.3722% and 76.7437% and 69.3109%
"CCOc1ccc(OCCN(CC)CC(O)c2ccc(C)cc2)cc1 (stereo not drawn) [RU-0211290, CCOC1=CC=C(OCCN(CC)CC(O)C2=CC=C(C)C=C2)C=C1]",validation NPI at 10 uM,[5],111
same,validation NPI at 20 uM,[5],146
same,activity at 10 µM,[5]; [8],152%
same,activity at 10 µM,[5]; [9],111 ± 8.9%
same,activity at 20 µM,"[5]; pH 6.4, 250 mM NaCl, 6 days",145 ± 8.4%
same,IC50,[5],< 39.1 nM
same,ShuminTan.MtbChloride.Primary: NPI%,[5],152.309%
same,rv1405c assay NPI at 10 uM,[6],103
same,rv1405c assay NPI at 20 uM,[6],129
same,IC50,[6],< 39.1 nM
same,activity at 10 µM,[6],102 ± 6.3%
same,activity at 20 µM,[6],128 ± 6%
same,inhibition at 20 µM,[7]; [10],17.1%
same,IC50,[7],> 20000 nM
"O=S1(=O)CC(S(=O)(=O)Nc2ccccc2-c2cccs2)c2ccccc21 (stereo not drawn) [RU-0214604, O=S(=O)(NC1=C(C=CC=C1)C1=CC=CS1)C1CS(=O)(=O)C2=C1C=CC=C2]",validation NPI at 10 uM,[5],146
same,validation NPI at 20 uM,[5],162
same,activity at 10 µM,[5]; [8],183%
same,activity at 10 µM,[5]; [9],145 ± 12%
same,activity at 20 µM,"[5]; pH 6.4, 250 mM NaCl, 6 days",161 ± 3.2%
same,IC50,[5],< 39.1 nM
same,ShuminTan.MtbChloride.Primary: NPI%,[5],183.08%
same,rv1405c assay NPI at 10 uM,[6],181
same,rv1405c assay NPI at 20 uM,[6],212
same,IC50,[6],< 39.1 nM
same,activity at 10 µM,[6],179 ± 26.5%
same,activity at 20 µM,[6],213 ± 23.6%
same,inhibition at 20 µM,[7]; [10],14.8%
same,IC50,[7],> 20000 nM
"CCc1nc(Cn2ccnc2-c2nc3c(s2)CCCC3)no1 [RU-0226010, CCC1=NC(CN2C=CN=C2C2=NC3=C(CCCC3)S2)=NO1]",activity at 10 µM,[5]; [8],168%
same,activity at 10 µM,[5]; [9],125 ± 6.6%
same,activity at 20 µM,"[5]; pH 6.4, 250 mM NaCl, 6 days",129 ± 4%
same,activity at 10 µM,[6],92.3 ± 12.5%
same,activity at 20 µM,[6],104 ± 23.1%
same,inhibition at 20 µM,[7]; [11],30.4 ± 2.4%
"N=C1SCC(=O)N1c1ncc(Cc2ccccc2)s1 [RU-0270641, N=C1SCC(=O)N1C1=NC=C(CC2=CC=CC=C2)S1]",activity at 10 µM,[5]; [8],42.5%
same,activity at 10 µM,[5]; [9],69 ± 5%
same,activity at 20 µM,"[5]; pH 6.4, 250 mM NaCl, 6 days",33.9 ± 6.5%
same,activity at 10 µM,[6],79.6 ± 11%
same,activity at 20 µM,[6],110 ± 12.2%
same,inhibition at 10 µM,"[7]; J774, 144 h, read-out: J774 tertiary assay % inhibition compared to Rif at 10 µM compound",12.1 ± 10.5%
same,inhibition at 20 µM,[7]; [11],28.8 ± 4.5%
"O=C(Nc1cccc(C(F)(F)F)c1)c1n[nH]c(=O)c2ccccc12 [RU-0270645, FC(F)(F)C1=CC(NC(=O)C2=NNC(=O)C3=C2C=CC=C3)=CC=C1]",validation NPI at 10 uM,[5],143
same,validation NPI at 20 uM,[5],153
same,activity at 10 µM,[5]; [8],155%
same,activity at 10 µM,[5]; [9],142 ± 8.2%
same,activity at 20 µM,"[5]; pH 6.4, 250 mM NaCl, 6 days",152 ± 12.1%
same,IC50,[5],< 39.1 nM
same,ShuminTan.MtbChloride.Primary: NPI%,[5],154.973%
same,rv1405c assay NPI at 10 uM,[6],93.5
same,rv1405c assay NPI at 20 uM,[6],138
same,IC50,[6],< 39.1 nM
same,activity at 10 µM,[6],93.4 ± 11.5%
same,activity at 20 µM,[6],139 ± 4.6%
same,inhibition at 20 µM,[7]; [10],17.7%
same,IC50,[7],> 20000 nM
